Laboratory results published in patent US20090286718A1, “Stable Aqueous Cyclosporin Compositions” (SIRION THERAPEUTICS, INC., priority 2008, published 2009).
Like-named read-outs stand apart in the source and are kept apart here.

Conditions: initial 0.220 %
Experimental: The samples were tested for stability after having been stored at 25° C. for three months.

In the case of C/C=C/C=C/C(=O)O [Sorbic Acid, sorbic acid], the “Sorbic Acid Concentration (%) After 3 months storage at 25 C.” value (pH = 5.5) was 0.13%, the “Sorbic Acid Concentration (%) After 3 months storage at 25 C.” value (pH = 6.0) was 0.21% and the “Sorbic Acid Concentration (%) After 3 months storage at 25 C.” value (pH = 6.5) was 0.21%.
